The results in this text go back to patent publication US11999727B2 (Tango Therapeutics, Inc., priority 2020, dated 2024).

The target of assay [1] is T1, PRMT5 (Homo sapiens, UniProt O14744).
T1 construct: purchased Viva (custom protein)
The assay can be described thus: PRMT5 biochemical IC50 assay with MTA as cofactor. Conditions: PRMT5, MTA as cofactor; read-out: MTA IC50.

Assay [2] concerns HAP1 MTAP-deleted cell line. The assay can be described thus: Viability assay, MTAP-deleted cell line. The assay is classed as cell-based. Conditions: Homo sapiens, read-out: HAP1 MTAP deleted viability. From the text:
Table 1 additionally indicates IC50 values in a viability assay for the MTAP-deleted cell line (column 10), indicating the effect of treatment with compound on cell survival.

For assay [3], the target named is T1, PRMT5. The assay can be described thus: PRMT5 biochemical IC50 assay with no cofactor. Particulars: PRMT5, no cofactor; read-out: No Cofactor/rel IC50. From the text: Table 1 indicates IC50 values (μM) against PRMT5 for exemplary compounds in the presence of SAM as cofactor, with no cofactor, and with MTA as cofactor, respectively (columns 4-6). […] Ki values can be calculated from the IC50 values as described in the Examples section. As detailed in the Examples section, for the assay performed in the presence of SAM, IC50=Ki×1.5 (Ki=IC50/1.5).

The target in assay [4] is T1, PRMT5. The assay is described as follows: PRMT5 biochemical IC50 assay with SAM as cofactor. Particulars: PRMT5, SAM as cofactor; read-out: SAM IC50.
The mark [5] stands for this setting: HAP1, viability IC50, MTAP-deleted cell line.
The mark [6] stands for this setting: HAP1, viability assay, HAP1 MTAP-deleted.
The mark [7] stands for this setting: HAP1, viability assay, MTAP-deleted cell line.

SMILES strings stand for the structures. Where two headings read alike, the source gives them in different places.

T1 sequence (O14744 whole entry): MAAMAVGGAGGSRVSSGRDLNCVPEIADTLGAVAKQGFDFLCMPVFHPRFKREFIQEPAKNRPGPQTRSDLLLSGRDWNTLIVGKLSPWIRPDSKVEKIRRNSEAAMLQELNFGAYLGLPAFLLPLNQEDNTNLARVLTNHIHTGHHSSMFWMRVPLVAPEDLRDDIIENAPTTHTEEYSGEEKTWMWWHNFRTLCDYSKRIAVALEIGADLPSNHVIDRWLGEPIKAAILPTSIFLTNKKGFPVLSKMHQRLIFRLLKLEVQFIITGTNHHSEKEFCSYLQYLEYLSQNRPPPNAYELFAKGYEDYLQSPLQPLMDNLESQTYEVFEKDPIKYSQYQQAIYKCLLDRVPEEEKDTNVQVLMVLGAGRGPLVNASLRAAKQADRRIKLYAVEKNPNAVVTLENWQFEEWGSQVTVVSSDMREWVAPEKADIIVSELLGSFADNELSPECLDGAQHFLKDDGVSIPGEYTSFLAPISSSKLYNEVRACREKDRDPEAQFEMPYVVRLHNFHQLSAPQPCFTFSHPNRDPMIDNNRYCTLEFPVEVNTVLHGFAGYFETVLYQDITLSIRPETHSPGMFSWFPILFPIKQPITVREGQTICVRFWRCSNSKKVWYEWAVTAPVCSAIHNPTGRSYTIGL
T1 sequence (Q9BQA1 whole entry partner): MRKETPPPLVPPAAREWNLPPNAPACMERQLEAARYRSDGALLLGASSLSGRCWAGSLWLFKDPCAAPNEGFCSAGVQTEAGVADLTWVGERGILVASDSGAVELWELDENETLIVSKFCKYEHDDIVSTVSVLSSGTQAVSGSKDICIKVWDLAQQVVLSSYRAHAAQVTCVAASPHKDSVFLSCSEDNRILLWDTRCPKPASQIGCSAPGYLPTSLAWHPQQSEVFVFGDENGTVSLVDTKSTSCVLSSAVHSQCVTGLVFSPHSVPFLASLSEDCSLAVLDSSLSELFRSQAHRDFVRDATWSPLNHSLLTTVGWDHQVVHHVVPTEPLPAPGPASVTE

As to `C[C@H]1CC[C@H](c2cc(F)c3[nH]ncc3c2)N(C(=O)C(=O)Nc2cncc(C(N)=O)c2)C1` (single isomer, unassigned) [Compound 680], the IC50 was more than 500 nM on PRMT5 [1], more than 10000 nM in assay [2] (setting [5]), more than 500 nM at PRMT5 [3] and more than 500 nM at PRMT5 [4].
For `Cc1cc(NC(=O)C(=O)N2C[C@@H](C)CC[C@@H]2c2cc(F)cc(Cl)c2)cnc1N` (single isomer, unassigned) [Compound 682], the IC50 on PRMT5 [1] was 50 to 500 nM; in assay [2] (setting [5]), more than 10000 nM; on PRMT5 [3], more than 500 nM; at PRMT5 [4], more than 500 nM.
Take `CCc1cc(NC(=O)C(=O)N2C[C@H](C)CC[C@H]2c2ccc3c(c2)C(=O)NC3)cnc1N` (single isomer, unassigned) [Compound 695]: the IC50 at PRMT5 [1] is more than 500 nM; in assay [2] (setting [5]), more than 10000 nM; on PRMT5 [3], more than 500 nM; on PRMT5 [4], more than 500 nM.
Turning to `Cc1ncc(NC(=O)C(=O)N2C[C@@H](C)CC[C@@H]2c2ccc3c(c2)CCC(=O)N3)cc1C(F)(F)F` (single isomer, unassigned) [Compound 698], the IC50 on PRMT5 [1] was more than 500 nM; in assay [2] (setting [5]), more than 10000 nM; on PRMT5 [3], more than 500 nM; on PRMT5 [4] it was more than 500 nM.
With `CCc1cc(NC(=O)C(=O)N2C[C@H](C)CC[C@H]2c2ccc3c(c2)CNC3=O)cnc1N` (single isomer, unassigned) [Compound 699, N-(6-amino-5-ethylpyridin-3-yl)-2-(5-methyl-2-(1-oxoisoindolin-5-yl)piperidin-1-yl)-2-oxoacetamide], the IC50 at PRMT5 [1] was more than 500 nM; in assay [2] (setting [5]) it was more than 10000 nM; at PRMT5 [3], more than 500 nM; at PRMT5 [4], more than 500 nM.
For `Cc1cc(NC(=O)C(=O)N2C[C@H](C)CC[C@H]2c2cc(F)cc(F)c2)cnc1N` (single isomer, unassigned) [Compound 712, N-(6-amino-5-methylpyridin-3-yl)-2-(2-(3,5-difluorophenyl)-5-methylpiperidin-1-yl)-2-oxoacetamide], the IC50 on PRMT5 [1] was more than 500 nM; in assay [2] (setting [6]), more than 10000 nM; on PRMT5 [3], more than 500 nM; at PRMT5 [4] it was more than 500 nM.
Regarding `Cc1cc(NC(=O)C(=O)N2C[C@@H](C)C(F)(F)C[C@@H]2c2ccccc2)cnc1N` (single isomer, unassigned) [Compound 713], the IC50 is more than 500 nM at PRMT5 [1], more than 10000 nM in assay [2] (setting [6]), more than 500 nM at PRMT5 [3] and more than 500 nM on PRMT5 [4].
In the case of `CNS(=O)(=O)c1ccc([C@@H]2CC[C@@H](C)CN2C(=O)C(=O)Nc2cncc(C(N)=O)c2)cc1` (single isomer, unassigned) [Compound 723], the IC50 at PRMT5 [1] was more than 500 nM; in assay [2] (setting [6]), more than 10000 nM; at PRMT5 [3], more than 500 nM; on PRMT5 [4] it was more than 500 nM.
For the compound `CC(=O)Nc1ccc([C@H]2CC[C@H](C)CN2C(=O)C(=O)Nc2cncc(C(N)=O)c2)cn1` (single isomer, unassigned) [Compound 905], the IC50 on PRMT5 [1] was more than 500 nM; in assay [2] (setting [7]) it was more than 10000 nM; on PRMT5 [3], more than 500 nM; at PRMT5 [4], more than 500 nM.
On to `Cc1cc(NC(=O)C(=O)N2C[C@H](C)CC[C@H]2c2ccc(S(C)(=O)=O)cc2)cnc1N` (single isomer, unassigned) [Compound 938], for which the IC50 at PRMT5 [1] was more than 500 nM; in assay [2] (setting [7]), more than 10000 nM; on PRMT5 [3] it was more than 500 nM; at PRMT5 [4], more than 500 nM.
Turning to `Cc1cc(NC(=O)C(=O)N2C[C@@H](C)CC[C@@H]2c2cccc3c2CCN3)cnc1N` (single isomer, unassigned) [Compound 957], the IC50 was more than 500 nM on PRMT5 [1], more than 10000 nM in assay [2] (setting [7]), more than 500 nM on PRMT5 [3] and more than 500 nM on PRMT5 [4].
For the compound `Cc1cc(NC(=O)C(=O)N2C[C@@H](C)CC[C@@H]2c2ccc3[nH]nc(N)c3c2)cnc1C` (single isomer, unassigned) [Compound 958], the IC50 is more than 500 nM at PRMT5 [1], more than 10000 nM in assay [2] (setting [7]), more than 500 nM at PRMT5 [3] and more than 500 nM at PRMT5 [4].
In the case of `C[C@H]1CC[C@H](c2cc3cn[nH]c3s2)N(C(=O)C(=O)Nc2cncc(C(N)=O)c2)C1` (single isomer, unassigned) [Compound 971, 5-(2-(5-methyl-2-(1H-thieno[2,3-c]pyrazol-5-yl)piperidin-1-yl)-2-oxoacetamido)nicotinamide], the IC50 on PRMT5 [1] was more than 500 nM; in assay [2] (setting [7]) it was more than 10000 nM; at PRMT5 [3] it was more than 500 nM; at PRMT5 [4] it was more than 500 nM.
As to `Cc1cc(NC(=O)C(=O)N2C[C@@H](C)CC[C@@H]2c2ccc(S(C)(=O)=O)cc2)cnc1N` (single isomer, unassigned) [Compound 976], the IC50 was less than 50 nM at PRMT5 [1], 1000 to 10000 nM in assay [2] (setting [7]), 50 to 500 nM on PRMT5 [3] and 50 to 500 nM on PRMT5 [4].
On to `Cc1cc(NC(=O)C(=O)N2C[C@H](C)CC[C@H]2c2ccc3sc(N)nc3c2)cnc1N` (single isomer, unassigned) [Compound 981], for which the IC50 on PRMT5 [1] is more than 500 nM; in assay [2] (setting [7]), more than 10000 nM; at PRMT5 [3], more than 500 nM; at PRMT5 [4], more than 500 nM.
As for `CCc1cc(NC(=O)C(=O)N2C[C@@H](C)CC[C@@H]2c2ccc(NS(C)(=O)=O)nc2)cnc1N` (single isomer, unassigned) [Compound 983], the IC50 was more than 500 nM on PRMT5 [1], more than 10000 nM in assay [2] (setting [7]), more than 500 nM at PRMT5 [3] and more than 500 nM on PRMT5 [4].
Consider `CCc1cc(NC(=O)C(=O)N2C[C@H](C)CC[C@H]2c2ccc3sc(N)nc3c2)cnc1N` (single isomer, unassigned) [Compound 984], for which the IC50 on PRMT5 [1] is more than 500 nM; in assay [2] (setting [7]) it was more than 10000 nM; at PRMT5 [3] it was more than 500 nM; at PRMT5 [4], more than 500 nM.
Regarding `C[C@H]1CC[C@H](c2ccc(NS(C)(=O)=O)nc2)N(C(=O)C(=O)Nc2cncc(C(N)=O)c2)C1` (single isomer, unassigned) [Compound 985], the IC50 at PRMT5 [1] was more than 500 nM; in assay [2] (setting [7]), more than 10000 nM; at PRMT5 [3] it was more than 500 nM; at PRMT5 [4], more than 500 nM.
Consider `C[C@H]1CC[C@H](c2ccc3sc(N)nc3c2)N(C(=O)C(=O)Nc2cncc(C(N)=O)c2)C1` (single isomer, unassigned) [Compound 987], for which the IC50 on PRMT5 [1] is less than 50 nM; in assay [2] (setting [7]), 1000 to 10000 nM; at PRMT5 [3] it was 50 to 500 nM; at PRMT5 [4], 50 to 500 nM.
For the compound `Cc1cc(NC(=O)C(=O)N2C[C@H](C)CC[C@H]2c2ccc3c(c2)CCNC3=O)cnc1N` (single isomer, unassigned) [Compound 994], the IC50 at PRMT5 [1] is more than 500 nM; in assay [2] (setting [7]) it was more than 10000 nM; on PRMT5 [3], more than 500 nM; at PRMT5 [4] it was more than 500 nM.
As to `CCc1cc(NC(=O)C(=O)N2C[C@@H](C)CC[C@@H]2c2ccc3sc(N)nc3c2)cnc1N` (single isomer, unassigned) [Compound 996], the IC50 was less than 50 nM on PRMT5 [1], less than 1000 nM in assay [2] (setting [7]), less than 50 nM at PRMT5 [3] and 50 to 500 nM at PRMT5 [4].
In the case of `COc1ncc(NC(=O)C(=O)N2C[C@@H](C)CC[C@@H]2c2ccc(NS(C)(=O)=O)nc2)cc1C(N)=O` (single isomer, unassigned) [Compound 999], the IC50 was more than 500 nM at PRMT5 [1], more than 10000 nM in assay [2] (setting [7]), more than 500 nM at PRMT5 [3] and more than 500 nM at PRMT5 [4].
Regarding `C[C@@H]1CC[C@@H](c2ccc3sc(N)nc3c2)N(C(=O)C(=O)Nc2cncc(C(N)=O)c2)C1` (single isomer, unassigned) [Compound 1001], the IC50 on PRMT5 [1] was more than 500 nM; in assay [2] (setting [7]), more than 10000 nM; at PRMT5 [3], more than 500 nM; at PRMT5 [4] it was more than 500 nM.
As to `Cc1cc(NC(=O)C(=O)N2C[C@@H](C)CC[C@@H]2c2ccc3cc[nH]c(=O)c3c2)cnc1N` (single isomer, unassigned) [Compound 1021], the IC50 on PRMT5 [1] is more than 500 nM; in assay [2] (setting [7]), more than 10000 nM; on PRMT5 [3], more than 500 nM; on PRMT5 [4], more than 500 nM.
As to `CCc1cc(NC(=O)C(=O)N2C[C@@H](C)CC[C@@H]2c2ccc3sc(C(F)(F)F)nc3c2)cnc1N` (single isomer, unassigned) [Compound 1022], the IC50 is less than 50 nM at PRMT5 [1], less than 1000 nM in assay [2] (setting [7]), less than 50 nM on PRMT5 [3] and 50 to 500 nM at PRMT5 [4].
Regarding `CCc1cc(NC(=O)C(=O)N2C[C@H](C)CC[C@H]2c2ccc3sc(C(F)(F)F)nc3c2)cnc1N` (single isomer, unassigned) [Compound 1027], the IC50 was more than 500 nM at PRMT5 [1], more than 10000 nM in assay [2] (setting [7]), more than 500 nM on PRMT5 [3] and more than 500 nM on PRMT5 [4].
Take `COc1ncc(NC(=O)C(=O)N2C[C@H](C)CC[C@H]2c2ccc3sc(C(F)(F)F)nc3c2)cc1C(N)=O` (single isomer, unassigned) [Compound 1030]: the IC50 at PRMT5 [1] is more than 500 nM; in assay [2] (setting [7]), more than 10000 nM; on PRMT5 [3], more than 500 nM; at PRMT5 [4], more than 500 nM.
Take `Cc1cc(NC(=O)C(=O)N2C[C@H](C)CC[C@H]2c2ccc3cc[nH]c(=O)c3c2)cnc1N` (single isomer, unassigned) [Compound 1031]: the IC50 at PRMT5 [1] was less than 50 nM; in assay [2] (setting [7]), less than 1000 nM; at PRMT5 [3], less than 50 nM; on PRMT5 [4], less than 50 nM.
